Measurements from ChEMBL document CHEMBL1201862, “PubChem BioAssay data set” (2004).
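Growth conditions: 96-well plates. Treatment: test compound, 48 hours, 5 concentrations. Analysis: linear interpolation between bracketing concentrations; unreached endpoints set to highest concentration. At the GI50, growth is halved.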 The source made the active and inactive calls. Cut-off read from the data, not from the text of the source: active = GI50 up to about 1.1 µM and inactive = higher.

What was measured:
Experiment in all cases: DTP human tumour cell line panel, 48 h
LOX IMVI = tested on: LOX IMVI
SN12C = tested on: SN12C
SR = tested on: SR
K562 = tested on: K562
DMS-114 = tested on: DMS-114
HL-60 = tested on: HL-60
M14 = tested on: M14
HCT-15 = tested on: HCT-15
HOP-92 = tested on: HOP-92
A498 = tested on: A498
CAKI-1 = tested on: CAKI-1
OVCAR-5 = tested on: OVCAR-5
NCI-H226 = tested on: NCI-H226
RXF 393 = tested on: RXF 393
UACC-62 = tested on: UACC-62
SNB-75 = tested on: SNB-75
UACC-257 = tested on: UACC-257
KM12 = tested on: KM12
TK-10 = tested on: TK-10
RXF 631 = tested on: RXF 631
HCC 2998 = tested on: HCC 2998
HT-29 = tested on: HT-29
SNB-19 = tested on: SNB-19
HCT-116 = tested on: HCT-116
OVCAR-3 = tested on: OVCAR-3
SNB-78 = tested on: SNB-78
786-0 = tested on: 786-0
NCI-H23 = tested on: NCI-H23
MOLT-4 = tested on: MOLT-4
NCI-H460 = tested on: NCI-H460
KM-20L2 = tested on: KM-20L2
SW-620 = tested on: SW-620
M19-MEL = tested on: M19-MEL
CCRF-CEM = tested on: CCRF-CEM
OVCAR-4 = tested on: OVCAR-4
DLD-1 = tested on: DLD-1
RPMI-8226 = tested on: RPMI-8226
ACHN = tested on: ACHN
SF-268 = tested on: SF-268
SF-539 = tested on: SF-539
IGROV-1 = tested on: IGROV-1
EKVX = tested on: EKVX
U-251 = tested on: U-251
HOP-18 = tested on: HOP-18
SK-MEL-5 = tested on: SK-MEL-5
UO-31 = tested on: UO-31
A549 = tested on: A549
COLO 205 = tested on: COLO 205
SF-295 = tested on: SF-295
SK-OV-3 = tested on: SK-OV-3
LXFL 529 = tested on: LXFL 529
HOP-62 = tested on: HOP-62
OVCAR-8 = tested on: OVCAR-8
NCI-H522 = tested on: NCI-H522
DMS-273 = tested on: DMS-273
Malme-3M = tested on: Malme-3M
SK-MEL-28 = tested on: SK-MEL-28
XF498 = tested on: XF498

Cc1oc2c(C)c3oc(=O)cc(C)c3cc2c1CN1C(=O)C2OCCOCCOCCOCCOCCO[C@H]2C1=O (some centres undefined)
GI50 (LOX IMVI): > 100 µM (inactive) | GI50 (SN12C): > 100 µM (inactive) | GI50 (SR): > 100 µM (inactive) | GI50 (K562): > 100 µM (inactive) | GI50 (DMS-114): > 100 µM (inactive) | GI50 (HL-60): > 100 µM (inactive) | GI50 (M14): > 100 µM (inactive) | GI50 (HCT-15): > 100 µM | GI50 (HOP-92): > 100 µM (inactive) | GI50 (A498): > 100 µM (inactive) | GI50 (CAKI-1): > 100 µM (inactive) | GI50 (OVCAR-5): > 100 µM (inactive) | GI50 (NCI-H226): > 100 µM (inactive) | GI50 (RXF 393): > 100 µM (inactive) | GI50 (UACC-62): > 100 µM (inactive) | GI50 (SNB-75): > 100 µM (inactive) | GI50 (UACC-257): > 100 µM (inactive) | GI50 (KM12): > 100 µM (inactive) | GI50 (TK-10): > 100 µM (inactive) | GI50 (RXF 631): 26.7 µM (inactive) | GI50 (HCC 2998): > 100 µM (inactive) | GI50 (HT-29): > 100 µM (inactive) | GI50 (SNB-19): > 100 µM (inactive) | GI50 (HCT-116): > 100 µM (inactive) | GI50 (OVCAR-3): > 100 µM (inactive) | GI50 (SNB-78): > 100 µM (inactive) | GI50 (786-0): > 100 µM (inactive) | GI50 (NCI-H23): > 100 µM (inactive) | GI50 (MOLT-4): > 100 µM (inactive) | GI50 (NCI-H460): > 100 µM (inactive) | GI50 (KM-20L2): > 100 µM (inactive) | GI50 (SW-620): > 100 µM (inactive) | GI50 (M19-MEL): > 100 µM (inactive) | GI50 (CCRF-CEM): > 100 µM (inactive) | GI50 (OVCAR-4): > 100 µM (inactive) | GI50 (DLD-1): > 100 µM (inactive) | GI50 (RPMI-8226): > 100 µM (inactive) | GI50 (ACHN): > 100 µM (inactive) | GI50 (SF-268): > 100 µM (inactive) | GI50 (SF-539): > 100 µM (inactive) | GI50 (IGROV-1): > 100 µM (inactive) | GI50 (EKVX): > 100 µM (inactive) | GI50 (U-251): > 100 µM (inactive) | GI50 (HOP-18): > 100 µM (inactive) | GI50 (SK-MEL-5): > 100 µM (inactive) | GI50 (UO-31): > 100 µM (inactive) | GI50 (A549): > 100 µM (inactive) | GI50 (COLO 205): > 100 µM (inactive) | GI50 (SF-295): > 100 µM (inactive) | GI50 (SK-OV-3): > 100 µM (inactive) | GI50 (LXFL 529): > 100 µM (inactive) | GI50 (HOP-62): > 100 µM (inactive) | GI50 (OVCAR-8): > 100 µM (inactive) | GI50 (NCI-H522): > 100 µM (inactive) | GI50 (DMS-273): > 100 µM (inactive) | GI50 (Malme-3M): > 100 µM (inactive)

NC(=S)N/N=C(\CC1OC(=O)c2ccccc21)c1ccc(Cl)cc1 (centres undefined)
GI50 (LOX IMVI): 27.8 µM (inactive) | GI50 (SN12C): 35.2 µM (inactive) | GI50 (SR): 60.7 µM (inactive) | GI50 (K562): 84.1 µM (inactive) | GI50 (DMS-114): 24.6 µM (inactive) | GI50 (HL-60): 98.2 µM (inactive) | GI50 (M14): 43.2 µM (inactive) | GI50 (HCT-15): 39.8 µM | GI50 (HOP-92): 23.1 µM (inactive) | GI50 (CAKI-1): 36.3 µM (inactive) | GI50 (OVCAR-5): 92.9 µM (inactive) | GI50 (NCI-H226): 24.4 µM (inactive) | GI50 (RXF 393): 25.1 µM (inactive) | GI50 (UACC-62): 19.6 µM (inactive) | GI50 (SNB-75): 49.2 µM (inactive) | GI50 (UACC-257): 46.7 µM (inactive) | GI50 (KM12): 22 µM (inactive) | GI50 (TK-10): 76.9 µM (inactive) | GI50 (RXF 631): 24 µM (inactive) | GI50 (HCC 2998): 23.9 µM (inactive) | GI50 (HT-29): 27.2 µM (inactive) | GI50 (SNB-19): 42.7 µM (inactive) | GI50 (HCT-116): 24.4 µM (inactive) | GI50 (OVCAR-3): 34.6 µM (inactive) | GI50 (SNB-78): 36.9 µM (inactive) | GI50 (786-0): 43.4 µM (inactive) | GI50 (NCI-H23): 25.2 µM (inactive) | GI50 (MOLT-4): 61.5 µM (inactive) | GI50 (NCI-H460): 34.3 µM (inactive) | GI50 (KM-20L2): 47 µM (inactive) | GI50 (SW-620): 44.8 µM (inactive) | GI50 (SK-MEL-28): 45.8 µM (inactive) | GI50 (XF498): 47 µM (inactive) | GI50 (M19-MEL): 21.9 µM (inactive) | GI50 (OVCAR-4): 23.1 µM (inactive) | GI50 (DLD-1): 41.3 µM (inactive) | GI50 (RPMI-8226): 75.3 µM (inactive) | GI50 (ACHN): 56.1 µM (inactive) | GI50 (SF-268): 36.8 µM (inactive) | GI50 (SF-539): 20.8 µM (inactive) | GI50 (IGROV-1): 40.3 µM (inactive) | GI50 (U-251): 22.5 µM (inactive) | GI50 (UO-31): 24.9 µM (inactive) | GI50 (A549): 48.2 µM (inactive) | GI50 (COLO 205): 38.6 µM (inactive) | GI50 (SF-295): 41.9 µM (inactive) | GI50 (SK-OV-3): 42.8 µM (inactive) | GI50 (LXFL 529): 28.8 µM (inactive) | GI50 (HOP-62): 23.2 µM (inactive) | GI50 (OVCAR-8): 18 µM (inactive) | GI50 (NCI-H522): 20.9 µM (inactive) | GI50 (DMS-273): 41 µM (inactive) | GI50 (Malme-3M): 30.6 µM (inactive)
